These results are taken from ChEMBL document CHEMBL1201862, “PubChem BioAssay data set” (2004).

The target in data set [1] is T1, Short transient receptor potential channel 4 (Mus musculus, UniProt Q9QUQ5).
T1 sequence (Q9QUQ5 whole entry): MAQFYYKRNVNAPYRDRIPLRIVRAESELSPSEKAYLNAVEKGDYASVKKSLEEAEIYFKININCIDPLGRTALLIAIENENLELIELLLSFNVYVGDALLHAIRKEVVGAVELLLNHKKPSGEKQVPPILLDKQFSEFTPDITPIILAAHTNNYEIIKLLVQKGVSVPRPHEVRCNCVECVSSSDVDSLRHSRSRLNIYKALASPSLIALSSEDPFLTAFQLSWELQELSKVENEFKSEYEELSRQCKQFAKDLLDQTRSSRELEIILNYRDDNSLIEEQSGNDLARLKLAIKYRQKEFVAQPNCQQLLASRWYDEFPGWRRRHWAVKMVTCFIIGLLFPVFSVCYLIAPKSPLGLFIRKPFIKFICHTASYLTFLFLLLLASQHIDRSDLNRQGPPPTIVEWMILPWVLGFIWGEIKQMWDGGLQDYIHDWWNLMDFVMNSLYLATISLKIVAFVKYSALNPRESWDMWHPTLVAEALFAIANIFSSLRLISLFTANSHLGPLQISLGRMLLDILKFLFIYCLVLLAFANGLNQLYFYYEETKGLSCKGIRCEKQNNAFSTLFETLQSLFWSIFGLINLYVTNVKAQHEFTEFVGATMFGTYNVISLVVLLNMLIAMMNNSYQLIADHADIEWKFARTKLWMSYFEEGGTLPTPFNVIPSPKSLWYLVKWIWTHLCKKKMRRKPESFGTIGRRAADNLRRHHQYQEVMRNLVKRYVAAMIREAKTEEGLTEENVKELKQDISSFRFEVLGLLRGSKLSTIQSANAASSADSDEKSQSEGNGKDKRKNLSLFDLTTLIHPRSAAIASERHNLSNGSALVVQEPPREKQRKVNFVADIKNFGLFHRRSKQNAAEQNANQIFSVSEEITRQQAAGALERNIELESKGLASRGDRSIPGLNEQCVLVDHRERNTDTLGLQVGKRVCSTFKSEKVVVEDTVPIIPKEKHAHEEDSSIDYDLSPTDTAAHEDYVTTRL
The experiment in a line: mouse TRPC4 channel inhibitors, dose response, cell-based, HEK293 TRPC4/mu-opioid, Fluo-4 calcium (AID 434942).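 Further: potency of inhibitors blocking the TRPC4 calcium response.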 In kind it is functional.

Data set [2] deals with T2, Fructose-bisphosphate aldolase (Mycobacterium tuberculosis, UniProt P9WQA3).
T2 sequence (P9WQA3 whole entry): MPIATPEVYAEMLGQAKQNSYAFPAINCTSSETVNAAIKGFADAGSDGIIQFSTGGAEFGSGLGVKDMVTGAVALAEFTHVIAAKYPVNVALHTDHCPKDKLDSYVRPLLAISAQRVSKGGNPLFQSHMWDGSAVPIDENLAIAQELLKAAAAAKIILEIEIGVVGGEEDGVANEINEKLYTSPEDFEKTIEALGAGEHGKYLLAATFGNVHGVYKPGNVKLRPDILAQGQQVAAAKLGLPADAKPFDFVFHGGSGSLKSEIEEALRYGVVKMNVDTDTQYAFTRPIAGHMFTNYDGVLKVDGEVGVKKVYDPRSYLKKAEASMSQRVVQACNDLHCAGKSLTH
The experiment in a line: Fluorescence-based biochemical high throughput dose response assay for inhibitors of the fructose-bisphosphate aldolase (FBA) of M. tuberculosis. In kind it is functional.

The nature of data set [3]: Luminescence Cell-Based Dose Response HTS to Identify Activators of Luciferase Translation or Activity in H4 […] Cells. [Related pubchem assays: 1829 (Project Summary), 1814 (Primary HTS)]. It counts as functional.
A short description of a further data set: cells. In kind it is functional, cell-based.
The next data set concerns H4. The experiment in a line: Luminescence Cell-Based Dose Response HTS to Identify Activators of 5'UTR Stem-Loop Driven Prion Protein mRNA Translation in H4 Neuroglioblastoma Cells. [Related pubchem assays: 1829 (Project Summary), 1814 (Primary HTS)]. In kind it is functional. As to conditions: Homo sapiens.
In data set [4] the target is T3, Nuclear receptor subfamily 0 group B member 1 (Homo sapiens, UniProt P51843).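 Further: HEK293T cells transfected with SF-1 and DAX-1 plus StAR promoter luciferase reporter.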
T3 sequence (P51843 whole entry): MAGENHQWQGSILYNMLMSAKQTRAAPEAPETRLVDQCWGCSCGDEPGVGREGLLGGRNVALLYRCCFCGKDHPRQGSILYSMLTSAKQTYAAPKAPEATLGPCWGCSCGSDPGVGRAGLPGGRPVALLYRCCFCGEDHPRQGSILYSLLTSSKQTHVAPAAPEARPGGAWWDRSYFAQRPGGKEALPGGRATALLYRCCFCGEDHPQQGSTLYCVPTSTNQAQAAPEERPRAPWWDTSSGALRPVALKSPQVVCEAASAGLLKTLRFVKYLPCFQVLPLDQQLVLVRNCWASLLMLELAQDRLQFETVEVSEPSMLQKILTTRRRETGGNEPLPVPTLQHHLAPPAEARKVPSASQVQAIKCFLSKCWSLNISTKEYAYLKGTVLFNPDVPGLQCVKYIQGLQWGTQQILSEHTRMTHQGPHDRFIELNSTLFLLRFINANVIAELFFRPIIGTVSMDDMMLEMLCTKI
It counts as functional, cell-based.

Data set [5] is described as follows: Luminescence Cell-Based Dose Confirmation HTS to Identify Activators of 5'UTR Stem-Loop Driven Alpha-Synuclein mRNA Translation in H4 Neuroglioblastoma Cells. [Related pubchem assays: 1829 (Project Summary), 1814 (Primary HTS)]. It counts as functional.
Another data set deals with Cytochrome P450 3A4 (Homo sapiens, UniProt P08684).
The target of the next data set is T4, Cytochrome P450 1A2 (Homo sapiens, UniProt P05177).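 Further: PubChem cytochrome P450 panel assay, CYP1A2 panel member.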
T4 sequence (P05177 whole entry): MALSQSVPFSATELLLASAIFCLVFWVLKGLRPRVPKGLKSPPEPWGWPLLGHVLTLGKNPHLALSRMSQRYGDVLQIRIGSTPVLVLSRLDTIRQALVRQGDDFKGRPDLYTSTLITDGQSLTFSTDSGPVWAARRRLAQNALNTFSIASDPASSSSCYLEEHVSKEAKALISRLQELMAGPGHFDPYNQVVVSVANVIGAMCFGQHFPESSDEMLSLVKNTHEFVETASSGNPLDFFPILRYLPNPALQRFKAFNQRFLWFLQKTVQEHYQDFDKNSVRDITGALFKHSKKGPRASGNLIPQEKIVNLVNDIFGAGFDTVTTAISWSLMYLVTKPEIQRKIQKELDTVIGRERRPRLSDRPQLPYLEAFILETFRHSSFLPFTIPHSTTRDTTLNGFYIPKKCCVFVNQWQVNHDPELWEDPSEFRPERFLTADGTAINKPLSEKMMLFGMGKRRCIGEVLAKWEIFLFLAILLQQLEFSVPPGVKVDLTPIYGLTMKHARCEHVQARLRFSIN

The next data set deals with T5, Streptokinase A (Streptococcus pyogenes serotype M1, UniProt P10520).
T5 sequence (P10520 whole entry): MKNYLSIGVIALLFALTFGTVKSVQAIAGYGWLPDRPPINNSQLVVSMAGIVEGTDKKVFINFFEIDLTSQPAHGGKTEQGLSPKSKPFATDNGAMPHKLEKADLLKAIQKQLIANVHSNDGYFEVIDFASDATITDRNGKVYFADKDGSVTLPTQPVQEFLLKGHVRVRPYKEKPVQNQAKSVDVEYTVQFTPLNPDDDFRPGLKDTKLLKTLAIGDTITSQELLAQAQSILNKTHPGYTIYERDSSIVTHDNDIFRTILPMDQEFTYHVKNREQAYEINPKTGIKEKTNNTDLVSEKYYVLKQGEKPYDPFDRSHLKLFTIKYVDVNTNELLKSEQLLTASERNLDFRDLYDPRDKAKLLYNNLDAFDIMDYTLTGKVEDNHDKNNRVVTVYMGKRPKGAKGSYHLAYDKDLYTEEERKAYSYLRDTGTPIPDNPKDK
Nature of the data set: S. pyogenes streptokinase expression inhibitors, potency, dose response, plasminogen activation absorbance, OD405 (AID 1914).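 Further: secreted streptokinase activity via plasminogen activation per viability signal from cell pellet.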 In kind it is functional, Streptococcus pyogenes M1 GAS.

The target of another data set is T6, Aminopeptidase N (Plasmodium falciparum FcB1/Columbia, UniProt O96935).
T6 sequence (O96935 whole entry): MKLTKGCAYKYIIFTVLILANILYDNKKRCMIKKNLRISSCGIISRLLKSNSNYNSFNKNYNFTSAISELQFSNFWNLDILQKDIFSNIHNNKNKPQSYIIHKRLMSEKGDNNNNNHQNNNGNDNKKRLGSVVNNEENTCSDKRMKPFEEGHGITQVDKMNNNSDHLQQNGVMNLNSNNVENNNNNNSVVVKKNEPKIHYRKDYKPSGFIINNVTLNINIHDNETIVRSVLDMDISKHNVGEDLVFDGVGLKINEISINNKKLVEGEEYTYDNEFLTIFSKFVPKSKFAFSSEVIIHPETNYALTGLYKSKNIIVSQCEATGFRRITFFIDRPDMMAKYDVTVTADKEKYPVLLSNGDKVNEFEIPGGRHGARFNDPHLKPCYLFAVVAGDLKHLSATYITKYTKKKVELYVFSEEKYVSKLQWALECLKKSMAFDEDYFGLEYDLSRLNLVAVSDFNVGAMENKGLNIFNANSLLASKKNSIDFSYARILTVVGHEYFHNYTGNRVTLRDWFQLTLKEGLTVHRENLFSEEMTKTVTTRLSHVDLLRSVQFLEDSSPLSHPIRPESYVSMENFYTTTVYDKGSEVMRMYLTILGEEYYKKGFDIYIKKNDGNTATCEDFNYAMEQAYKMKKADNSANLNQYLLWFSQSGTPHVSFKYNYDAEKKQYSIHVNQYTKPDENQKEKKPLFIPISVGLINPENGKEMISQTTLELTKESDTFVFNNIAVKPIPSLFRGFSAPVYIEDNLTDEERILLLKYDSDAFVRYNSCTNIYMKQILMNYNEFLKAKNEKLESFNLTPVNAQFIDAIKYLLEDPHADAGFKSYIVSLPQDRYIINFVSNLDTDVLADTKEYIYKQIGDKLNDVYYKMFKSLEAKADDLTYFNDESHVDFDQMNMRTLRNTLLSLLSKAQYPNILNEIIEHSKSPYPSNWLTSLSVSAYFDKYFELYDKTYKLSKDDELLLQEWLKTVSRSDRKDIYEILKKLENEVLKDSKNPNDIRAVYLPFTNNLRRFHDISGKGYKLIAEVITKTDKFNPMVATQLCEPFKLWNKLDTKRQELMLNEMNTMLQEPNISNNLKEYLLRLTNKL
Nature of the data set: P. falciparum M1AAP inhibitors, biochemical, fluorogenic H-Leu-NHMec substrate, 1536-well (AID 1445). Also on record: species or system Plasmodium falciparum 3D7, 3D7.

Data set [6] relates to Streptococcus sp. 'group A'. The experiment in a line: growth inhibition of control SK(-) GAS strain, dose response, counter-screen for streptokinase expression inhibitor project, luminescence, kanamycin, BacTiterGlo, confirmation (AID 1900). In kind it is functional, organism-based.
Another data set concerns Streptococcus. Nature of the data set: Group A Streptococcus viability loss, dose response, counter-screen for streptokinase expression inhibitor project, luminescence, BacTiterGlo (AID 1915).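 Further: potency for reduction of bacterial viability or growth.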 In kind it is functional, organism-based. (A counterscreen serves to expose hits that act by an unwanted route or on another target.)
The target of data set [7] is T7, Long-chain-fatty-acid--AMP ligase FadD28 (Mycobacterium tuberculosis, UniProt P9WQ59).
T7 sequence (P9WQ59 whole entry): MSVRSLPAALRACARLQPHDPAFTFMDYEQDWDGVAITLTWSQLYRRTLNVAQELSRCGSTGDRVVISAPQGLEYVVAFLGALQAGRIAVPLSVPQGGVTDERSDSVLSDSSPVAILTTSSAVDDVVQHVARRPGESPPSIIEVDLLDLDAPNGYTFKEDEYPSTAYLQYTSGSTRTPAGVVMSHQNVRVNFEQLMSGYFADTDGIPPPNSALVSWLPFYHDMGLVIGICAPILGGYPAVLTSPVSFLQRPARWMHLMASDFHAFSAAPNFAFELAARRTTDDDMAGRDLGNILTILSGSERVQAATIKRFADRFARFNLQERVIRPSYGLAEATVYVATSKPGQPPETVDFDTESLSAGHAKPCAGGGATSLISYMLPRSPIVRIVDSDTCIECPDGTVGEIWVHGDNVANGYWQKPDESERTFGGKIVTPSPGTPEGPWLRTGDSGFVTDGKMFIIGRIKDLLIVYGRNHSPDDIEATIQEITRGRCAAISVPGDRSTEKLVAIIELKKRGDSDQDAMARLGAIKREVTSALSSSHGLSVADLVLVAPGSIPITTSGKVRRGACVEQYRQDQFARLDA
The experiment in a line: Fluorescence polarization aasay to screen for inhibitors that compete for the binding of FadD28 to a bisubstrate Measured in Biochemical System Using Plate Reader - 2147-01_Inhibitor_Dose_CherryPick_Activity. It counts as functional, Mycobacterium tuberculosis H37Rv.

Activity calls are given as the source filed them.

One may read the EC50 as the concentration at which the effect is half-maximal. What is called IC50 is the concentration at which inhibition is half-maximal. A word on the AC50: it is the midpoint of the concentration-response curve, whichever way the signal moves.

Sequence of Cytochrome P450 3A4 (P08684 whole entry): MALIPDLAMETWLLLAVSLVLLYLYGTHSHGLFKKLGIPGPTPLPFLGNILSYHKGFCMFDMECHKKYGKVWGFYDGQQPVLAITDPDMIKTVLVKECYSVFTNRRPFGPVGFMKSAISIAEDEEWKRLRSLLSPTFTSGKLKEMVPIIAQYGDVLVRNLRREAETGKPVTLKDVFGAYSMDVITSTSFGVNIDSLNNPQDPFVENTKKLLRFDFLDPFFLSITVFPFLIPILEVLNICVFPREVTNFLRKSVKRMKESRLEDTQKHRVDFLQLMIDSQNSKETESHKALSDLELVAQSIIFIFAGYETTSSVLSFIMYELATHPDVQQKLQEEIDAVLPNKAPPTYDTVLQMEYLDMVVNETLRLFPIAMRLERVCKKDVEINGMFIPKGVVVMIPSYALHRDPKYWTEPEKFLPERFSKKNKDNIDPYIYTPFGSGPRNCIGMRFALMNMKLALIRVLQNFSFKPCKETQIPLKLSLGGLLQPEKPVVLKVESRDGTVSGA

For the compound `Oc1ccc(CN2CCCCC2)nc1-c1ccccc1`, the EC50 in [1] is 4.73 µM (active). The IC50 in data set [2] is 3.34 µM (active).
Turning to `N#Cc1cc(-c2cccc(Cl)c2)cnc1O`, the IC50 in data set [2] is 2.29 µM (active).
For `CCOC(=O)N1CCN(C(=O)c2ccc3oc(CCCc4ccccc4)nc3c2)CC1`, the EC50 was 0.436 µM (active) in data set [3], 2.2 µM (active) in the data set on H4 and 0.579 µM (active) in [5]. Further, the IC50 (in the data set “cells”; in [4]) was > 67.5 µM (inactive) in each case.
As for `CCn1nc2cc(C(=O)NCC34CC5CC(CC(C5)C3)C4)ccc2c1OC`, the figures for the AC50 result at Cytochrome P450 3A4 and at Cytochrome P450 1A2 were “inconclusive” and 12.6 µM (inconclusive), respectively. Also, in data set [2], the IC50 is 1.94 µM (active).
Take `Sc1nnc(-c2cc3c(s2)-c2ccccc2CC3)o1`: the EC50 on Streptokinase A was > 150 µM (not active); in data set [1] it was 0.944 µM (active); in data set [6], 11.5 µM (active); with Streptococcus it was 23.3 µM (inconclusive). Also, the IC50 on Aminopeptidase N was 67.4 µM (active). In addition, the AC50 in [7] is 24.9 µM (active).
As for `C=C(c1ccc2[nH]c(NC(=O)OC)nc2c1)c1cccs1`, the IC50 is > 67.6 µM (inactive) in “cells” and 2.72 µM (active) in data set [4].
Regarding `NC(=O)C1CCN(C(=O)CCNS(=O)(=O)c2ccccc2F)CC1`, the IC50 in [2] is > 9.99 µM (inactive).
